# Measurements as given in the supplement of paper PMC4862054.
# Several values for one entry are separate records, joined by “and”; a condition that tells them apart may be missing. Equal entries are not always repeated.
# System: MDA-MB-468
# Experiment: normalised viability (% of control), CellTiter-Blue; higher = more viable cells (about 100 = DMSO control)
# Settings: 100 nM; incubation time: 72 h
# Summary of the method: (§1)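 Breast cancer cell lines in 20 µl suspension were seeded onto 384-well plates pre-loaded with compound dissolved in 5 µl medium, then incubated 72 h. CellTiter-Blue reagent (2.5 µl) was added for 2 h at 37 °C and fluorescence read at 560/590 nm. Each plate was normalised to vehicle (100) and a positive kill control (0), with Z'-factor quality control. The value is normalised viability at one listed concentration of the series.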
row,Compound,normalised viability [%]
1,CC[C@@H]1C(=O)N(C)c2cnc(Nc3ccc(C(=O)NC4CCN(C)CC4)cc3OC)nc2N1C1CCCC1 [BI 2536],52.2

# Same assay, conditions: 250 nM; incubation time: 72 h
row,Compound,normalised viability [%]
1,CC(=O)Nc1cccc(-n2c(=O)n(C3CC3)c(=O)c3c(Nc4ccc(I)cc4F)n(C)c(=O)c(C)c32)c1,74.7

# Same assay, conditions: 990 nM; incubation time: 72 h
row,Compound,normalised viability [%]
1,CCN(CC)CCCC(C)Nc1c2ccc(Cl)cc2nc2ccc(OC)cc12 (stereo not given) [Mepacrine],43.4

# Same assay, conditions: 1000 nM; incubation time: 72 h
row,Compound,normalised viability
1,Nc1ncn([C@H]2C[C@H](O)[C@@H](CO)O2)c(=O)n1 [Decitabine],28.7% and 29.4%
2,O=C(/C=C/c1cccnc1)NCCCCC1CCN(C(=O)c2ccccc2)CC1 [FK-866],1.73%
3,CC[C@@H]1C(=O)N(C)c2cnc(Nc3ccc(C(=O)NC4CCN(C)CC4)cc3OC)nc2N1C1CCCC1 [BI 2536],55.1%
4,CCN(CC)CCCC(C)Nc1c2ccc(Cl)cc2nc2ccc(OC)cc12 (stereo not given) [Mepacrine],94.7%
5,Nc1nc2[nH]cc(CCc3ccc(C(=O)N[C@@H](CCC(=O)O)C(=O)O)cc3)c2c(=O)[nH]1 [Pemetrexed],71.9%
6,COc1cc([C@@H]2c3cc4c(cc3[C@@H](O[C@@H]3O[C@@H]5CO[C@@H](c6cccs6)O[C@H]5[C@H](O)[C@H]3O)[C@H]3COC(=O)[C@H]23)OCO4)cc(OC)c1O [Teniposide],54.2%
7,COc1cc2nccc(Oc3ccc(NC(=O)Nc4cc(C)on4)c(Cl)c3)c2cc1OC [Tivozanib],111%
8,O=C(Cc1ccc(-c2ccc(OCCN3CCOCC3)cc2)cn1)NCc1ccccc1 [KX2-391],38.9%
9,Nc1ccccc1NC(=O)c1ccc(CNC(=O)OCc2cccnc2)cc1 [Entinostat],79.8%
10,C=CC(=O)Nc1cc2c(Nc3ccc(F)c(Cl)c3)ncnc2cc1OCCCN1CCOCC1 [Canertinib],52.9%
11,CC[C@H](Nc1ncnc2[nH]cnc12)c1nc2cccc(F)c2c(=O)n1-c1ccccc1 [CAL-101],96%

# Same assay, conditions: 10000 nM; incubation time: 72 h
row,Compound,normalised viability
1,Nc1ncn([C@H]2C[C@H](O)[C@@H](CO)O2)c(=O)n1 [Decitabine],27% and 29.1%
2,CCN(CC)CCCC(C)Nc1c2ccc(Cl)cc2nc2ccc(OC)cc12 (stereo not given) [Mepacrine],5.97%
3,Nc1nc2[nH]cc(CCc3ccc(C(=O)N[C@@H](CCC(=O)O)C(=O)O)cc3)c2c(=O)[nH]1 [Pemetrexed],99.5%
4,COc1cc([C@@H]2c3cc4c(cc3[C@@H](O[C@@H]3O[C@@H]5CO[C@@H](c6cccs6)O[C@H]5[C@H](O)[C@H]3O)[C@H]3COC(=O)[C@H]23)OCO4)cc(OC)c1O [Teniposide],15.6%
5,COc1cc2nccc(Oc3ccc(NC(=O)Nc4cc(C)on4)c(Cl)c3)c2cc1OC [Tivozanib],51.1%
6,O=C(Cc1ccc(-c2ccc(OCCN3CCOCC3)cc2)cn1)NCc1ccccc1 [KX2-391],51.8%
7,Nc1ccccc1NC(=O)c1ccc(CNC(=O)OCc2cccnc2)cc1 [Entinostat],22.9%
8,C=CC(=O)Nc1cc2c(Nc3ccc(F)c(Cl)c3)ncnc2cc1OCCCN1CCOCC1 [Canertinib],1.77%
9,CC[C@H](Nc1ncnc2[nH]cnc12)c1nc2cccc(F)c2c(=O)n1-c1ccccc1 [CAL-101],62.6%

# System: MFM-223
# Experiment: as above
# Settings: 0.25 nM; incubation time: 72 h
# Summary of the method: as §1
row,Compound,normalised viability [%]
1,CC(=O)Nc1cccc(-n2c(=O)n(C3CC3)c(=O)c3c(Nc4ccc(I)cc4F)n(C)c(=O)c(C)c32)c1,98.8

# Same assay, conditions: 0.99 nM; incubation time: 72 h
row,Compound,normalised viability [%]
1,CCN(CC)CCCC(C)Nc1c2ccc(Cl)cc2nc2ccc(OC)cc12 (stereo not given) [Mepacrine],107
